One series deals with DC2.4 cells. Description: In vitro transfection of DC2.4 cells with EGFP mRNA LNP preparation (flow cytometry). Particulars: DC2.4 cells; for Cell Viability / Positive Rate (EGFP): EGFP mRNA LNP, 200 ng mRNA per well, flow cytometry; for Fluorescence Intensity: EGFP mRNA expression level, normalized based on the sample with the highest fluorescence intensity. It counts as cell-based, mouse. An excerpt:
The description is based on peripheral blood mononuclear cells PBMC (Shanghai Oribiotech Co., Ltd.), human peripheral blood leukemia T cell Jurkat (ATCC), tumor infiltrating lymphocyte TIL (isolated from resected tumor tissue of a liver cancer patient, the preparation method refers to CN114763530A), mouse bone marrow-derived dendritic cells DC2.4 (Cell Bank of the Chinese Academy of Sciences), and Chinese hamster ovary cells CHO (ATCC) were used as verified cell lines for liposome transfection. PBMC, Jurkat, and TIL cells grew in suspension, while DC2.4 and CHO cells grew by adherent culture. All the operation steps of cell culture must strictly abide by the prescribed procedures, and sterile reagents is used to perform aseptic operations under a sterile workbench. The main steps are as follows: • 1) Cell recovery: the preserved cell cryopreservation solution was taken out of the −80° C. refrigerator, and was immediately put in a 37° C. water bath for rapid and continuous shaking, and was completely melted within one minute. Fresh medium was added to the 15 mL centrifuge tube in advance, and the cell solution was added to the centrifuge tube in a biological safety cabinet. A centrifuge tube of the same quality was taken and placed symmetrically in a centrifuge, centrifuged at a low speed at 1200 rpm for 5 min. After centrifugation, the supernatant was removed, and an appropriate amount of medium was slowly added along the tube wall. After the cells were evenly dispersed by blowing gently, the cell suspension was pipette and added to the culture bottle prepared in advance. The state and distribution of the cells in the early stage of recovery were observed under a microscope. The culture bottle was placed in a 5% CO2 incubator and incubated at 37° C., and the recovery time was recorded. • 2) Cell subculture: Under the microscope, if the cell density in the field of view reaches 80%-90%, the cells can be subcultured. Adherent cells need to be digested with trypsin. In order to avoid the residual serum in the culture medium to reduce the activity of trypsin, DPBS solution was added to wash once after removing the original culture medium. After remove the DPBS solution, trypsin was added to degrade the protein at the junction between cells. This separates the cells for further culture. The cells were gently shaked evenly and put into the incubator for digestion for 2 min. Immediately after the digestion was completed, an appropriate amount of medium was added to the original petri dish to terminate the digestion. Finally, the cells were carefully blowed off using a pipette and blowed until they are evenly dispersed, and then inoculated and subcultured at a certain ratio according to the experimental requirements. […]
• 1) DC2.4 cells recovery: the frozen DC2.4 cells were taken out from the −80° C. refrigerator, put in a 37° C. water bath to quickly thaw the cells, added to the preheated medium after thawing, centrifuged at 1200 rpm for 5 min, the supernatant was discarded, and an appropriate amount of DMEM medium with 10% FBS was added to resuspend the recovered DC2.4, and placed in a 5% CO2 incubator at 37° C. for activation and culture. • 2) According to the experimental arrangement, DC2.4 cells were plated on a 24-well plate one day in advance for cell transfection. Through cell counting, the number of cells and cell viability were recorded, the cell suspension were taken at 2×10^5 cells per well, then a certain volume of DMEM medium containing 10% FBS was added and mixed evenly, 1 mL of mixture was added to each well for subsequent transfection experiment. • 3) After 24 hours, the medium was gently removed 30 minutes in advance by a pipette, 1 mL DPBS was added to each well for washing and then removed, then 300 μL serum-free Opti-MEM medium was added to each well for subsequent transfection experiments.
Subsequent steps are the same as the transfection protocol for PBMC cells. […]
For orientation: A flow cytometer gives signals particle by particle.

Series [1] can be described thus: Size and polydispersity index PDI of lipid nanoparticles (Malvern Zetasizer Nano ZS). It counts as physicochemical. Conditions: LNP ionizable lipid/DOPE/cholesterol/DSPE-PEG2000 35/16/46.5/2.5 mol% encapsulating EGFP mRNA; for Particle Size: in nm (unit assumed). Here is the method: (§1) The ionizable lipid compound of Example 1 was dissolved in ethanol with DOPE, cholesterol and DSPE-PEG2000 (all purchased from AVT (Shanghai) Pharmaceutical Technology Co., Ltd.) at a molar ratio of 35:16:46.5:2.5 to prepare ethanol lipid solution, and enhanced green fluorescent protein (EGFP) mRNAs (Shanghai Maximna Pharmaceutical Engineering Co., Ltd., JN-4201) were diluted in 20 mM citrate buffer (pH=6.1) to obtain mRNA aqueous solution. Ethanol lipid solution and mRNA aqueous solution were mixed at a volume ratio of 1:3 by using a microfluidic device (Micro&Nano (Shanghai) Instrument Technology Co., Ltd., model: INano™ML), LNPs were prepared with a weight ratio of approximately 10:1 between total lipids and mRNAs. The medium was replaced by ultrafiltration, ethanol was removed and volumed with DPBS. Finally, the lipid nanoparticles were filtered through a 0.2 μm sterile filter to obtain a LNP formulation encapsulating eGFP mRNA using ionizable lipid/DOPE/cholesterol/DSPE-PEG2000 (35/16/46.5/2.5 mol %), the concentration of mRNAs being 0.002 mg/mL-0.5 mg/mL.
Using Malvern Zetasizer Nano ZS (Malvern UK), the size and polydispersity index PDI of lipid nanoparticles were measured at […].

Series [2] can be described thus: Entrapment efficiency of LNP preparation encapsulating EGFP mRNA. Conditions: LNP ionizable lipid/DOPE/cholesterol/DSPE-PEG2000 35/16/46.5/2.5 mol% encapsulating EGFP mRNA. The format is physicochemical. How it is done:
as §1, with “mg/mL. […]” for “mg/mL.”

Molecules are shown by their SMILES.

In the case of `CCCCCCCCCCCCCCC(O)CN(CCN(CCN1CCN(CCO)CC1)CCN(CC(O)CCCCCCCCCCCCCC)CC(O)CCCCCCCCCCCCCC)CC(O)CCCCCCCCCCCCCC` (stereo not drawn) [I-C16], in the series with DC2.4 cells, the “Cell Viability” value is on record as 81.3%, the “Positive Rate (EGFP)” value is recorded as 68.7% and the “Fluorescence Intensity” value was 0.06. In series [1], the PDI stood at 0.147 and the “Particle Size” value was 96.3. For the same compound, the “Entrapment Efficiency” value in series [2] was 91.60%.
Take `CCCCCCCCCCCCCCCCC(O)CN(CCN(CCN1CCN(CCO)CC1)CCN(CC(O)CCCCCCCCCCCCCCCC)CC(O)CCCCCCCCCCCCCCCC)CC(O)CCCCCCCCCCCCCCCC` (stereo not drawn) [I-C18]: in the series on DC2.4 cells, the “Cell Viability” value was 86.0%, the “Positive Rate (EGFP)” value turned out to be 66.4% and the “Fluorescence Intensity” value came out at 0.04. For the same compound, in series [1], the PDI turned out to be 0.109 and the “Particle Size” value is 72.3. The “Entrapment Efficiency” value in series [2] was 83.06%.
Regarding `CCCCCCCCCCC(O)CN(CCOCCN(CCOCCN(CC(O)CCCCCCCCCC)CC(O)CCCCCCCCCC)CCN1CCN(CCO)CC1)CC(O)CCCCCCCCCC` (stereo not drawn) [J-C12], in the series with DC2.4 cells, the “Cell Viability” value is 81.8%, the “Positive Rate (EGFP)” value was 62.6% and the “Fluorescence Intensity” value was determined as 0.04. Besides, in series [1], the PDI amounted to 0.105 and the “Particle Size” value is listed as 99.7. Further, the “Entrapment Efficiency” value in series [2] is reported as 92.88%.
As to `CCCCCCCCCCCCC(O)CN(CCOCCN(CCOCCN(CC(O)CCCCCCCCCCCC)CC(O)CCCCCCCCCCCC)CCN1CCN(CCO)CC1)CC(O)CCCCCCCCCCCC` (stereo not drawn) [J-C14], in the series on DC2.4 cells, the “Cell Viability” value was above 99.0%, the “Positive Rate (EGFP)” value is on record as 59.1% and the “Fluorescence Intensity” value turned out to be 0.06. Further, in series [1], the PDI was 0.121 and the “Particle Size” value is 126.1. For the same compound, in series [2], the “Entrapment Efficiency” value turned out to be 83.58%.
On to `CCCCCCCCCCCCCCC(O)CN(CCOCCN(CCOCCN(CC(O)CCCCCCCCCCCCCC)CC(O)CCCCCCCCCCCCCC)CCN1CCN(CCO)CC1)CC(O)CCCCCCCCCCCCCC` (stereo not drawn) [J-C16], for which, in the series with DC2.4 cells, the “Cell Viability” value is 85.2%, the “Positive Rate (EGFP)” value was 62.0% and the “Fluorescence Intensity” value was 0.04. Besides, in series [1], the PDI is listed as 0.077 and the “Particle Size” value is on record as 104.1. The “Entrapment Efficiency” value in series [2] is recorded as 81.08%.
Regarding `CCCCCCCCCCCCCCCCC(O)CN(CCOCCN(CCOCCN(CC(O)CCCCCCCCCCCCCCCC)CC(O)CCCCCCCCCCCCCCCC)CCN1CCN(CCO)CC1)CC(O)CCCCCCCCCCCCCCCC` (stereo not drawn) [J-C18], in the series on DC2.4 cells, the “Cell Viability” value came to 83.6%, the “Positive Rate (EGFP)” value was 60.9% and the “Fluorescence Intensity” value came out at 0.04. For the same compound, in series [1], the PDI turned out to be 0.163 and the “Particle Size” value is reported as 93.7. The “Entrapment Efficiency” value in series [2] is recorded as 88.56%.
For the compound `CCCCCCCCCCC(O)CN(CCOCCOCCN(CCOCCOCCN(CC(O)CCCCCCCCCC)CC(O)CCCCCCCCCC)CCN1CCN(CCO)CC1)CC(O)CCCCCCCCCC` (stereo not drawn) [K-C12], in the series with DC2.4 cells, the “Cell Viability” value is on record as above 99.0%, the “Positive Rate (EGFP)” value worked out at 62.8% and the “Fluorescence Intensity” value is 0.07. In series [1], the PDI was found to be 0.075 and the “Particle Size” value was determined as 75.9. Also, in series [2], the “Entrapment Efficiency” value amounted to 92.83%.
Consider `CCCCCCCCCCCCC(O)CN(CCOCCOCCN(CCOCCOCCN(CC(O)CCCCCCCCCCCC)CC(O)CCCCCCCCCCCC)CCN1CCN(CCO)CC1)CC(O)CCCCCCCCCCCC` (stereo not drawn) [K-C14], for which, in the series on DC2.4 cells, the “Cell Viability” value is listed as 82.3%, the “Positive Rate (EGFP)” value turned out to be 59.8% and the “Fluorescence Intensity” value amounted to 0.03. Besides, in series [1], the PDI was found to be 0.155 and the “Particle Size” value was determined as 122.7. For the same compound, in series [2], the “Entrapment Efficiency” value is listed as 87.00%.
For `CCCCCCCCCCCCCCC(O)CN(CCOCCOCCN(CCOCCOCCN(CC(O)CCCCCCCCCCCCCC)CC(O)CCCCCCCCCCCCCC)CCN1CCN(CCO)CC1)CC(O)CCCCCCCCCCCCCC` (stereo not drawn) [K-C16], in the series on DC2.4 cells, the “Cell Viability” value was found to be 93.4%, the “Positive Rate (EGFP)” value was 60.2% and the “Fluorescence Intensity” value was found to be 0.04. In series [1], the PDI is 0.185 and the “Particle Size” value came out at 76.0. Moreover, the “Entrapment Efficiency” value in series [2] came to 95.74%.

Values taken from patent US20250345277A1, “Ionizable Liposome, Preparation Thereof, and Application Thereof in Gene Delivery” (MAXIRNA (ZHEJIANG) TECHNOLOGY CO. LTD., priority 2021, published 2025).
